Assay results published in PubChem BioAssay AID192 (DTP/NCI, 2004).
Several values for one entry are separate records, joined by “and”; a condition that tells them apart may be missing. Equal entries are not always repeated. Inconclusive results and toxic doses are left out. Peptide text beside a SMILES is read from it.

Tested on: BDF1 mice, B16 melanoma ip, median survival T/C
Assay: NCI In Vivo Anticancer Drug Screen. Data for tumor model B16 Melanoma (intraperitoneal) in B6D2F1 (BDF1) mice
Details: endpoint: median survival time, higher = longer survival
Summary of the method: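 Tumor-bearing mice received test compound or vehicle. Survival or tumor size was then measured in both groups. The treated-group figure was divided by the control-group figure.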

[1] = dose: 100.0 mg/kg/injection, schedule: Q04DX003 (ip), vehicle: saline with Tween-80
[2] = dose: 200.0 mg/kg/injection, schedule: Q04DX003 (ip), vehicle: saline with Tween-80
[3] = dose: 400.0 mg/kg/injection, schedule: Q04DX003 (ip), vehicle: saline with Tween-80
[4] = dose: 6.25 mg/kg/injection, schedule: Q01DX009 (ip), vehicle: Klucel (hydroxypropylcellulose) (HPC)
[5] = dose: 12.5 mg/kg/injection, schedule: Q01DX009 (ip), vehicle: Klucel (hydroxypropylcellulose) (HPC)
[6] = dose: 100.0 mg/kg/injection, schedule: Q01DX009 (ip), vehicle: saline with Tween-80
[7] = dose: 200.0 mg/kg/injection, schedule: Q01DX009 (ip), vehicle: saline with Tween-80
[8] = dose: 50.0 mg/kg/injection, schedule: Q01DX009 (ip), vehicle: Klucel (hydroxypropylcellulose) (HPC)
[9] = dose: 12.5 mg/kg/injection, schedule: Q01DX009 (ip), vehicle: saline
[10] = dose: 25.0 mg/kg/injection, schedule: Q01DX009 (ip), vehicle: saline with Tween-80
[11] = dose: 50.0 mg/kg/injection, schedule: Q01DX009 (ip), vehicle: saline with Tween-80
[12] = dose: 25.0 mg/kg/injection, schedule: Q01DX009 (ip), vehicle: saline
[13] = dose: 50.0 mg/kg/injection, schedule: Q01DX009 (ip), vehicle: saline
[14] = dose: 100.0 mg/kg/injection, schedule: Q01DX009 (ip), vehicle: saline
[15] = dose: 200.0 mg/kg/injection, schedule: Q01DX009 (ip), vehicle: saline
[16] = dose: 400.0 mg/kg/injection, schedule: Q01DX009 (ip), vehicle: saline

SMILES: CC(=O)OCC(=O)[C@@]12OC(C)(C)O[C@@H]1C[C@H]1[C@@H]3CC(C=O)=C4C=C(OCCCl)CC[C@]4(C)[C@@]3(F)[C@@H](O)C[C@@]12C
- T/C (dose: 25.0 mg/kg/injection, schedule: Q04DX003 (ip), vehicle: saline with Tween-80): 111 % of control
- T/C (dose: 50.0 mg/kg/injection, schedule: Q04DX003 (ip), vehicle: saline with Tween-80): 112 % of control
- T/C [1]: 115 % of control
- T/C [2]: 110 % of control
- T/C [3]: 109 % of control

SMILES: CCOc1ccc([NH-])c([NH-])c1.[Cl][Pt+2][Cl]
- T/C (dose: 2.5 mg/kg/injection, schedule: Q01DX009 (ip), vehicle: distilled water + Tween-80): 115 % of control
- T/C (dose: 5.0 mg/kg/injection, schedule: Q01DX009 (ip), vehicle: distilled water + Tween-80): 115 % of control
- T/C (dose: 10.0 mg/kg/injection, schedule: Q01DX009 (ip), vehicle: distilled water + Tween-80): 117 % of control
- T/C (dose: 20.0 mg/kg/injection, schedule: Q01DX009 (ip), vehicle: distilled water + Tween-80): 102 % of control

SMILES: Cc1ccc(S(=O)(=O)N/N=C/C(=O)O)cc1
- T/C (dose: 0.78 mg/kg/injection, schedule: Q01DX009 (ip), vehicle: saline with Tween-80): 108 % of control
- T/C (dose: 1.56 mg/kg/injection, schedule: Q01DX009 (ip), vehicle: saline with Tween-80): 110 % of control
- T/C (dose: 3.12 mg/kg/injection, schedule: Q01DX009 (ip), vehicle: saline with Tween-80): 104 % of control
- T/C [4]: 103 % of control and 111 % of control
- T/C (dose: 6.25 mg/kg/injection, schedule: Q01DX009 (ip), vehicle: saline with Tween-80): 104 % of control and 112 % of control
- T/C [5]: 121 % of control
- T/C (dose: 12.5 mg/kg/injection, schedule: Q01DX009 (ip), vehicle: saline with Tween-80): 111 % of control
- T/C (dose: 15.0 mg/kg/injection, schedule: Q01DX009 (ip), vehicle: saline with Tween-80): 112 % of control
- T/C (dose: 17.5 mg/kg/injection, schedule: Q01DX009 (ip), vehicle: Klucel (hydroxypropylcellulose) (HPC)): 118 % of control
- T/C (dose: 23.0 mg/kg/injection, schedule: Q01DX009 (ip), vehicle: saline with Tween-80): 103 % of control
- T/C (dose: 53.0 mg/kg/injection, schedule: Q01DX009 (ip), vehicle: saline with Tween-80): 100 % of control
- T/C (dose: 70.0 mg/kg/injection, schedule: Q01DX009 (ip), vehicle: Klucel (hydroxypropylcellulose) (HPC)): 151 % of control
- T/C (dose: 70.0 mg/kg/injection, schedule: Q01DX009 (ip), vehicle: saline with Tween-80): 115 % of control

SMILES: CC(=O)Oc1cccc(C#N)c1
- T/C [6]: 108 % of control
- T/C [7]: 112 % of control
- T/C (dose: 400.0 mg/kg/injection, schedule: Q01DX009 (ip), vehicle: saline with Tween-80): 91 % of control

SMILES: Cc1cc(CCl)c(C)c(Br)c1C
- T/C [4]: 97 % of control
- T/C [5]: 119 % of control
- T/C (dose: 25.0 mg/kg/injection, schedule: Q01DX009 (ip), vehicle: Klucel (hydroxypropylcellulose) (HPC)): 105 % of control
- T/C [8]: 105 % of control

SMILES: O=C(Nc1ccc2ccccc2c1)c1ccc(Cl)cc1Cl
- T/C [1]: 88 % of control
- T/C [2]: 91 % of control
- T/C [3]: 94 % of control

SMILES: Cc1cc2c3ccccc3ccc2[n+]2ccccc12
- T/C (dose: 6.25 mg/kg/injection, schedule: Q01DX009 (ip), vehicle: saline): 95 % of control
- T/C [9]: 93 % of control

SMILES: CCN(CC)CCOc1ccc(Br)cc1
- T/C [5]: 96 % of control
- T/C [8]: 87 % of control and 98 % of control

SMILES: c1cn[nH]c1
- T/C [10]: 97 % of control
- T/C [11]: 96 % of control
- T/C [6]: 91 % of control

SMILES: COCc1ccc(COC)cc1
- T/C (dose: 100.0 mg/kg/injection, schedule: Q04DX003 (ip), vehicle: saline): 102 % of control
- T/C (dose: 200.0 mg/kg/injection, schedule: Q04DX003 (ip), vehicle: saline): 102 % of control
- T/C (dose: 400.0 mg/kg/injection, schedule: Q04DX003 (ip), vehicle: saline): 100 % of control

SMILES: CCOC(=O)c1cnc(SC)nc1Sc1ccc(Cl)cc1
- T/C (dose: 100.0 mg/kg/injection, schedule: Q04DX003 (ip), vehicle: Klucel (hydroxypropylcellulose) (HPC)): 100 % of control
- T/C (dose: 200.0 mg/kg/injection, schedule: Q04DX003 (ip), vehicle: Klucel (hydroxypropylcellulose) (HPC)): 99 % of control
- T/C (dose: 400.0 mg/kg/injection, schedule: Q04DX003 (ip), vehicle: Klucel (hydroxypropylcellulose) (HPC)): 89 % of control

SMILES: C1CCC(OB2OB(OC3CCCCC3)OB(OC3CCCCC3)O2)CC1
- T/C (dose: 50.0 mg/kg/injection, schedule: Q01DX009 (ip), vehicle: other): 103 % of control
- T/C (dose: 100.0 mg/kg/injection, schedule: Q01DX009 (ip), vehicle: other): 93 % of control
- T/C (dose: 200.0 mg/kg/injection, schedule: Q01DX009 (ip), vehicle: other): 102 % of control

SMILES: Cc1ccc(Cl)cc1NC(=O)c1ccccc1
- T/C (dose: 75.0 mg/kg/injection, schedule: Q01DX009 (ip), vehicle: Klucel (hydroxypropylcellulose) (HPC)): 93 % of control
- T/C (dose: 150.0 mg/kg/injection, schedule: Q01DX009 (ip), vehicle: Klucel (hydroxypropylcellulose) (HPC)): 104 % of control
- T/C (dose: 300.0 mg/kg/injection, schedule: Q01DX009 (ip), vehicle: Klucel (hydroxypropylcellulose) (HPC)): 105 % of control

SMILES: CC1CNC(=S)O1 (centres undefined)
- T/C [12]: 97 % of control
- T/C [13]: 91 % of control
- T/C [14]: 91 % of control
- T/C [15]: 89 % of control
- T/C [16]: 91 % of control

SMILES: O=c1cnn(C2OC(CO)C(O)C2O)c(=S)[nH]1 (centres undefined)
- T/C [1]: 93 % of control
- T/C [2]: 95 % of control
- T/C [3]: 88 % of control

SMILES: CC1(c2ccccc2)CCc2ccccc21 (centres undefined)
- T/C [10]: 103 % of control
- T/C [11]: 89 % of control
- T/C [6]: 90 % of control

SMILES: COC(=O)C1=C(N)CCc2ccccc21
- T/C [6]: 90 % of control
- T/C [7]: 95 % of control

SMILES: NC(CCC(=O)O)C(=O)NC(CCC(=O)O)C(=O)O (stereo not drawn) (H-Glu-Glu-OH; configuration not given here)
- T/C [13]: 97 % of control
- T/C [14]: 96 % of control
- T/C [15]: 93 % of control
- T/C [16]: 91 % of control

SMILES: CCOC(=O)N1c2ccccc2C=CC1OCC (centres undefined)
- T/C (dose: 6.25 mg/kg/injection, schedule: Q04DX003 (ip), vehicle: Klucel (hydroxypropylcellulose) (HPC)): 105 % of control
- T/C (dose: 12.5 mg/kg/injection, schedule: Q04DX003 (ip), vehicle: Klucel (hydroxypropylcellulose) (HPC)): 105 % of control
- T/C (dose: 25.0 mg/kg/injection, schedule: Q04DX003 (ip), vehicle: Klucel (hydroxypropylcellulose) (HPC)): 89 % of control and 105 % of control

SMILES: CC(N)Cc1ccc(O)cc1 (centres undefined)
- T/C [9]: 102 % of control
- T/C [12]: 110 % of control
- T/C [13]: 100 % of control
- T/C [14]: 105 % of control
- T/C [15]: 100 % of control

SMILES: CCC(CC)(C[NH-])C[NH-].[Cl][Pt+2][Cl]
- T/C (dose: 1.2 mg/kg/injection, schedule: Q01DX009 (ip), vehicle: carboxymethylcellulose (CMC)): 164 % of control
- T/C (dose: 2.4 mg/kg/injection, schedule: Q01DX009 (ip), vehicle: carboxymethylcellulose (CMC)): 164 % of control

SMILES: CC(=O)C1=CC(=O)NC(=O)C1C(=O)CC(C)C (centres undefined)
- T/C (dose: 1.56 mg/kg/injection, schedule: Q01DX009 (ip), vehicle: Klucel (hydroxypropylcellulose) (HPC)): 104 % of control
- T/C (dose: 3.12 mg/kg/injection, schedule: Q01DX009 (ip), vehicle: Klucel (hydroxypropylcellulose) (HPC)): 89 % of control and 95 % of control
- T/C [4]: 92 % of control

SMILES: CN(C)c1c(-c2ccccc2)cc(-c2ccccc2)[nH]c1=O
- T/C [11]: 92 % of control
- T/C [6]: 86 % of control

SMILES: CC[C@]12CN3CCc4c([nH]c5ccccc45)[C@@](C(=O)OC)(c4cc5c(cc4OC)N(C=O)[C@H]4[C@@](O)(C(=O)OC)[C@H](OC(C)=O)[C@]6(CC)C=CCN7CC[C@]54[C@@H]76)C[C@H](C3)[C@H]1O2
- T/C (dose: 4.0 mg/kg/injection, schedule: Q01DX011 (ip), vehicle: saline): 159 % of control
